± gives the expanded uncertainty stated by the source.
Experiment: xn = mol fraction of the nth substance listed
Settings: 92 kPa, Liquid; for mass density: Vibrating tube method

SMILES: CC(C)(N)CO [2-amino-2-methylpropan-1-ol] + O
- mass density (298.15 K, x1 = 0.0503): 996.94 ± 0.1 kg/m3
- mass density (298.15 K, x1 = 0.0704): 997.22 ± 0.12 kg/m3
- mass density (298.15 K, x1 = 0.1005): 997.05 ± 0.16 kg/m3
- mass density (298.15 K, x1 = 0.2006): 989.06 ± 0.31 kg/m3
- mass density (298.15 K, x1 = 0.2939): 978.77 ± 0.44 kg/m3
- mass density (298.15 K, x1 = 0.4075): 967.43 ± 0.6 kg/m3
- mass density (298.15 K, x1 = 0.4982): 959.61 ± 0.73 kg/m3
- mass density (298.15 K, x1 = 0.5996): 952.01 ± 0.87 kg/m3
- mass density (298.15 K, x1 = 0.7028): 945.34 ± 1 kg/m3
- mass density (298.15 K, x1 = 0.8016): 939.53 ± 1.2 kg/m3
- mass density (298.15 K, x1 = 0.9001): 934.8 ± 1.3 kg/m3
- viscosity (298.15 K, x1 = 0.0503): 2.32 ± 0.21 mPa·s
- viscosity (298.15 K, x1 = 0.0704): 3.23 ± 0.29 mPa·s
- viscosity (298.15 K, x1 = 0.1005): 5.01 ± 0.43 mPa·s
- viscosity (298.15 K, x1 = 0.2006): 14.82 ± 1 mPa·s
- viscosity (298.15 K, x1 = 0.2939): 22.7 ± 1.5 mPa·s
- viscosity (298.15 K, x1 = 0.4075): 51.5 ± 0.6 mPa·s
- viscosity (298.15 K, x1 = 0.4982): 76.8 ± 9.1 mPa·s
- viscosity (298.15 K, x1 = 0.5996): 102.5 ± 20 mPa·s
- viscosity (298.15 K, x1 = 0.7028): 124.3 ± 31 mPa·s
- viscosity (298.15 K, x1 = 0.8016): 140.7 ± 40 mPa·s
- viscosity (298.15 K, x1 = 0.9001): 149.1 ± 44 mPa·s
- mass density (303.15 K, x1 = 0.0503): 994.7 ± 0.1 kg/m3
- mass density (303.15 K, x1 = 0.0704): 994.6 ± 0.12 kg/m3
- mass density (303.15 K, x1 = 0.1005): 993.88 ± 0.16 kg/m3
- mass density (303.15 K, x1 = 0.2006): 985.15 ± 0.3 kg/m3
- mass density (303.15 K, x1 = 0.2939): 974.76 ± 0.44 kg/m3
- mass density (303.15 K, x1 = 0.4075): 963.43 ± 0.6 kg/m3
- mass density (303.15 K, x1 = 0.4982): 955.61 ± 0.73 kg/m3
- mass density (303.15 K, x1 = 0.5996): 948 ± 0.87 kg/m3
- mass density (303.15 K, x1 = 0.7028): 941.38 ± 1 kg/m3
- mass density (303.15 K, x1 = 0.8016): 935.53 ± 1.1 kg/m3
- mass density (303.15 K, x1 = 0.9001): 930.7 ± 1.3 kg/m3
- viscosity (303.15 K, x1 = 0.0503): 1.98 ± 0.18 mPa·s
- viscosity (303.15 K, x1 = 0.0704): 2.67 ± 0.24 mPa·s
- viscosity (303.15 K, x1 = 0.1005): 4.05 ± 0.36 mPa·s
- viscosity (303.15 K, x1 = 0.2006): 11.32 ± 0.83 mPa·s
- viscosity (303.15 K, x1 = 0.2939): 16.96 ± 1.2 mPa·s
- viscosity (303.15 K, x1 = 0.4075): 36.9 ± 2.4 mPa·s
- viscosity (303.15 K, x1 = 0.4982): 54.3 ± 1.3 mPa·s
- viscosity (303.15 K, x1 = 0.5996): 70.3 ± 6.7 mPa·s
- viscosity (303.15 K, x1 = 0.7028): 84 ± 12 mPa·s
- viscosity (303.15 K, x1 = 0.8016): 94 ± 16 mPa·s
- viscosity (303.15 K, x1 = 0.9001): 98.9 ± 19 mPa·s
- mass density (313.15 K, x1 = 0.0503): 989.66 ± 0.1 kg/m3
- mass density (313.15 K, x1 = 0.0704): 988.95 ± 0.12 kg/m3
- mass density (313.15 K, x1 = 0.1005): 987.5 ± 0.16 kg/m3
- mass density (313.15 K, x1 = 0.2006): 977.24 ± 0.3 kg/m3
- mass density (313.15 K, x1 = 0.2939): 966.67 ± 0.43 kg/m3
- mass density (313.15 K, x1 = 0.4075): 955.29 ± 0.6 kg/m3
- mass density (313.15 K, x1 = 0.4982): 947.43 ± 0.72 kg/m3
- mass density (313.15 K, x1 = 0.5996): 939.82 ± 0.86 kg/m3
- mass density (313.15 K, x1 = 0.7028): 933.1 ± 1 kg/m3
- mass density (313.15 K, x1 = 0.8016): 927.27 ± 1.1 kg/m3
- mass density (313.15 K, x1 = 0.9001): 923.35 ± 1.3 kg/m3
- mass density (313.15 K, x1 = 1): 919.65 ± 1.4 kg/m3
- viscosity (313.15 K, x1 = 0.0503): 1.608 ± 0.15 mPa·s
- viscosity (313.15 K, x1 = 0.0704): 1.931 ± 0.18 mPa·s
- viscosity (313.15 K, x1 = 0.1005): 2.79 ± 0.25 mPa·s
- viscosity (313.15 K, x1 = 0.2006): 7 ± 0.56 mPa·s
- viscosity (313.15 K, x1 = 0.2939): 12.51 ± 0.9 mPa·s
- viscosity (313.15 K, x1 = 0.4075): 20.37 ± 1.4 mPa·s
- viscosity (313.15 K, x1 = 0.4982): 28.7 ± 1.9 mPa·s
- viscosity (313.15 K, x1 = 0.5996): 36.1 ± 2.4 mPa·s
- viscosity (313.15 K, x1 = 0.7028): 42.5 ± 2.8 mPa·s
- viscosity (313.15 K, x1 = 0.8016): 46.2 ± 3 mPa·s
- viscosity (313.15 K, x1 = 0.9001): 47.9 ± 3.2 mPa·s
- viscosity (313.15 K, x1 = 1): 47.8 ± 3.2 mPa·s
- mass density (323.15 K, x1 = 0.0503): 984.18 ± 0.1 kg/m3
- mass density (323.15 K, x1 = 0.0704): 982.83 ± 0.12 kg/m3
- mass density (323.15 K, x1 = 0.1005): 980.6 ± 0.16 kg/m3
- mass density (323.15 K, x1 = 0.2006): 969.17 ± 0.3 kg/m3
- mass density (323.15 K, x1 = 0.2939): 958.38 ± 0.43 kg/m3
- mass density (323.15 K, x1 = 0.4075): 946.98 ± 0.59 kg/m3
- mass density (323.15 K, x1 = 0.4982): 939.08 ± 0.72 kg/m3
- mass density (323.15 K, x1 = 0.5996): 931.58 ± 0.86 kg/m3
- mass density (323.15 K, x1 = 0.7028): 924.7 ± 1 kg/m3
- mass density (323.15 K, x1 = 0.8016): 918.85 ± 1.1 kg/m3
- mass density (323.15 K, x1 = 0.9001): 914.78 ± 1.3 kg/m3
- mass density (323.15 K, x1 = 1): 911.24 ± 1.4 kg/m3
- viscosity (323.15 K, x1 = 0.0503): 1.244 ± 0.12 mPa·s
- viscosity (323.15 K, x1 = 0.0704): 1.466 ± 0.14 mPa·s
- viscosity (323.15 K, x1 = 0.1005): 2.03 ± 0.19 mPa·s
- viscosity (323.15 K, x1 = 0.2006): 4.66 ± 0.41 mPa·s
- viscosity (323.15 K, x1 = 0.2939): 7.85 ± 0.61 mPa·s
- viscosity (323.15 K, x1 = 0.4075): 12.17 ± 0.88 mPa·s
- viscosity (323.15 K, x1 = 0.4982): 16.26 ± 1.1 mPa·s
- viscosity (323.15 K, x1 = 0.5996): 20 ± 1.4 mPa·s
- viscosity (323.15 K, x1 = 0.7028): 22.7 ± 1.6 mPa·s
- viscosity (323.15 K, x1 = 0.8016): 24.6 ± 1.7 mPa·s
- viscosity (323.15 K, x1 = 0.9001): 25.3 ± 1.7 mPa·s
- viscosity (323.15 K, x1 = 1): 25.1 ± 1.7 mPa·s
- mass density (333.15 K, x1 = 0.0503): 978.15 ± 0.1 kg/m3
- mass density (333.15 K, x1 = 0.0704): 976.26 ± 0.12 kg/m3
- mass density (333.15 K, x1 = 0.1005): 973.43 ± 0.16 kg/m3
- mass density (333.15 K, x1 = 0.2006): 960.92 ± 0.3 kg/m3
- mass density (333.15 K, x1 = 0.2939): 949.92 ± 0.43 kg/m3
- mass density (333.15 K, x1 = 0.4075): 938.48 ± 0.59 kg/m3
- mass density (333.15 K, x1 = 0.4982): 930.56 ± 0.71 kg/m3
- mass density (333.15 K, x1 = 0.5996): 923.08 ± 0.85 kg/m3
- mass density (333.15 K, x1 = 0.7028): 915.97 ± 0.99 kg/m3
- mass density (333.15 K, x1 = 0.8016): 910.36 ± 1.1 kg/m3
- mass density (333.15 K, x1 = 0.9001): 906.31 ± 1.3 kg/m3
- mass density (333.15 K, x1 = 1): 902.87 ± 1.4 kg/m3
- viscosity (333.15 K, x1 = 0.0503): 0.931 ± 0.093 mPa·s
- viscosity (333.15 K, x1 = 0.0704): 1.154 ± 0.11 mPa·s
- viscosity (333.15 K, x1 = 0.1005): 1.55 ± 0.15 mPa·s
- viscosity (333.15 K, x1 = 0.2006): 3.27 ± 0.29 mPa·s
- viscosity (333.15 K, x1 = 0.2939): 5.23 ± 0.45 mPa·s
- viscosity (333.15 K, x1 = 0.4075): 7.63 ± 0.6 mPa·s
- viscosity (333.15 K, x1 = 0.4982): 10 ± 0.75 mPa·s
- viscosity (333.15 K, x1 = 0.5996): 11.97 ± 0.87 mPa·s
- viscosity (333.15 K, x1 = 0.7028): 13.33 ± 0.96 mPa·s
- viscosity (333.15 K, x1 = 0.8016): 14.22 ± 1 mPa·s
- viscosity (333.15 K, x1 = 0.9001): 14.53 ± 1 mPa·s
- viscosity (333.15 K, x1 = 1): 14.4 ± 1 mPa·s
- mass density (343.15 K, x1 = 0.0503): 971.66 ± 0.1 kg/m3
- mass density (343.15 K, x1 = 0.0704): 969.29 ± 0.12 kg/m3
- mass density (343.15 K, x1 = 0.1005): 965.83 ± 0.16 kg/m3
- mass density (343.15 K, x1 = 0.2006): 952.44 ± 0.3 kg/m3
- mass density (343.15 K, x1 = 0.2939): 941.28 ± 0.42 kg/m3
- mass density (343.15 K, x1 = 0.4075): 930 ± 0.58 kg/m3
- mass density (343.15 K, x1 = 0.4982): 921.85 ± 0.7 kg/m3
- mass density (343.15 K, x1 = 0.5996): 914.39 ± 0.84 kg/m3
- mass density (343.15 K, x1 = 0.7028): 907 ± 0.98 kg/m3
- mass density (343.15 K, x1 = 0.8016): 901.65 ± 1.1 kg/m3
- mass density (343.15 K, x1 = 0.9001): 897.77 ± 1.2 kg/m3
- mass density (343.15 K, x1 = 1): 894.28 ± 1.4 kg/m3
- viscosity (343.15 K, x1 = 0.0503): 0.826 ± 0.084 mPa·s
- viscosity (343.15 K, x1 = 0.0704): 0.933 ± 0.093 mPa·s
- viscosity (343.15 K, x1 = 0.1005): 1.21 ± 0.12 mPa·s
- viscosity (343.15 K, x1 = 0.2006): 2.4 ± 0.22 mPa·s
- viscosity (343.15 K, x1 = 0.2939): 3.67 ± 0.32 mPa·s
- viscosity (343.15 K, x1 = 0.4075): 4.94 ± 0.43 mPa·s
- viscosity (343.15 K, x1 = 0.4982): 6.43 ± 0.52 mPa·s
- viscosity (343.15 K, x1 = 0.5996): 7.5 ± 0.59 mPa·s
- viscosity (343.15 K, x1 = 0.7028): 8.23 ± 0.64 mPa·s
- viscosity (343.15 K, x1 = 0.8016): 8.88 ± 0.68 mPa·s
- viscosity (343.15 K, x1 = 0.9001): 8.98 ± 0.69 mPa·s
- viscosity (343.15 K, x1 = 1): 8.91 ± 0.69 mPa·s
